The record followed here is ChEMBL document CHEMBL1201862, “PubChem BioAssay data set” (2004).

Molecules are shown by their SMILES.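 Briefly, cells in 96-well plates were exposed to five compound concentrations for 48 h, and endpoints were estimated by linear interpolation. Here, GI50 denotes the concentration required for 50% inhibition of growth.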 The source made the active and inactive calls. Rule as the data show it: active = GI50 up to about 1.1 µM and inactive = higher.

Among the test systems are SK-MEL-5; SK-MEL-2; SK-OV-3; OVCAR-5; SNB-19; SW-620; OVCAR-4; OVCAR-8; SF-295; HOP-92; HT-29; LOX IMVI; OVCAR-3; U-251; RXF 393; HL-60; COLO 205; SNB-75; SK-MEL-28; EKVX.
Holding throughout (test): NCI-60 cell line screen, 48 h

Take `O=C(O)c1cn2c3c(cc(N4CCN(CCO)CC4)cc3c1=O)SCC2`: the GI50 is > 100 µM (inactive) with SK-MEL-5; 48.4 µM (inactive) in the assay on SK-MEL-2; > 100 µM (inactive) in the assay with SK-OV-3; > 75.5 µM (inactive) in the assay with OVCAR-5; 96.2 µM (inactive) in the assay on SNB-19; > 100 µM (inactive) in the assay on SW-620. Moreover, the GI50 with OVCAR-4 is > 60.8 µM (inactive); in the assay with OVCAR-8 it was 62.8 µM (inactive); in the assay with SF-295 it was > 100 µM (inactive); in the assay with HOP-92, 59.6 µM (inactive); in the assay with HT-29, > 100 µM (inactive); with LOX IMVI, 71.1 µM (inactive). Moreover, the GI50 in the assay with OVCAR-3 was 58.6 µM (inactive); in the assay with U-251, > 95.9 µM (inactive); with RXF 393, > 100 µM (inactive); in the assay on HL-60, > 100 µM (inactive); in the assay on COLO 205, > 100 µM (inactive); with SNB-75, 30.7 µM (inactive). Also, the GI50 in the assay on SK-MEL-28 and in the assay with EKVX was > 100 µM (inactive) throughout.
On to `CCOC(=O)c1c(NC(=O)Nc2ccccc2)c(C(N)=O)c2n1CCCCC2`, for which the GI50 in the assay on SK-MEL-5, in the assay on SK-MEL-2, with SK-OV-3, in the assay with SNB-19, in the assay on SW-620 and in the assay with OVCAR-4 was > 100 µM (inactive) each time. Moreover, the GI50 in the assay with OVCAR-8, in the assay with SF-295, in the assay with HOP-92, with HT-29, in the assay on LOX IMVI and in the assay on U-251 was > 100 µM (inactive) in each case. Besides, the GI50 in the assay on RXF 393, with HL-60, in the assay with COLO 205, in the assay with SNB-75, with SK-MEL-28 and in the assay on EKVX was > 100 µM (inactive) throughout.
As to `CCOC(=O)c1ccc(Nc2nc3cc(C(F)(F)F)ccc3nc2C(=O)OCC)cc1`, the GI50 is 28.3 µM (inactive) in the assay on SK-MEL-5; 44.5 µM (inactive) in the assay on SK-OV-3; > 100 µM (inactive) in the assay with OVCAR-5; 22.6 µM (inactive) with SNB-19; > 100 µM (inactive) in the assay on SW-620; 51.6 µM (inactive) in the assay with OVCAR-8. In addition, the GI50 in the assay with SF-295 was 38.3 µM (inactive); with HOP-92 it was 50 µM (inactive); in the assay on HT-29 it was 84.1 µM (inactive); in the assay on LOX IMVI it was 42.8 µM (inactive); in the assay with OVCAR-3 it was 58.6 µM (inactive); in the assay with U-251 it was 19.7 µM (inactive). The GI50 in the assay with RXF 393 is > 100 µM (inactive); in the assay with HL-60, > 100 µM (inactive); in the assay with COLO 205, 46.9 µM (inactive); with SNB-75, 40.2 µM (inactive); in the assay with SK-MEL-28 it was > 100 µM (inactive); in the assay with EKVX, > 100 µM (inactive).
On to `Nc1ccn(C2OC(CO)C(O)C2(F)F)c(=O)n1` (stereo not drawn), for which the GI50 was 0.436 µM (active) in the assay on SK-MEL-5; 0.667 µM (active) in the assay with SK-OV-3; 0.547 µM (active) in the assay on OVCAR-5; 0.129 µM (active) in the assay on SNB-19; 0.759 µM (active) with SW-620; 0.051 µM (active) in the assay on OVCAR-8. Moreover, the GI50 is 0.254 µM (active) with SF-295; 0.462 µM (active) in the assay on HOP-92; 0.492 µM (active) in the assay on HT-29; 0.157 µM (active) with LOX IMVI; 1.88 µM (inactive) with OVCAR-3; 0.162 µM (active) in the assay on U-251. Besides, the GI50 was 0.214 µM (active) with RXF 393, 0.0249 µM (active) in the assay with HL-60, 0.82 µM (active) in the assay with COLO 205 and 0.973 µM (active) with EKVX.
As to `Cc1cc(O)c(C(C)C)cc1SC#N`, the GI50 with SK-MEL-5 was 19.6 µM (inactive); in the assay with SK-MEL-2, 18.2 µM (inactive); in the assay on SK-OV-3, 21 µM (inactive); with SW-620, 17.3 µM (inactive); in the assay with OVCAR-4, 13.5 µM (inactive); with OVCAR-8, 17.7 µM (inactive). Further, the GI50 is 17.3 µM (inactive) in the assay on SF-295; 10.7 µM (inactive) in the assay on HOP-92; 11.9 µM (inactive) in the assay with LOX IMVI; 15.5 µM (inactive) with OVCAR-3; 16.9 µM (inactive) with U-251; 15.5 µM (inactive) with RXF 393. The GI50 with HL-60 is 35.1 µM (inactive); in the assay with COLO 205 it was 19.4 µM (inactive); with SNB-75, 10.4 µM (inactive); with SK-MEL-28 it was 17.4 µM (inactive).
Consider `CCOP(=O)(COCCn1nc(Br)c(=O)[nH]c1=O)OCC`, for which the GI50 with SK-MEL-5, with SK-MEL-2, in the assay on OVCAR-5, in the assay with SNB-19, in the assay with SW-620 and with OVCAR-8 was > 100 µM (inactive) each time. The GI50 with HOP-92, in the assay on LOX IMVI, in the assay on OVCAR-3, with U-251, in the assay with RXF 393 and in the assay with HL-60 was > 100 µM (inactive) each time. Further, the GI50 with COLO 205, with SNB-75, in the assay with SK-MEL-28 and in the assay with EKVX was > 100 µM (inactive) throughout.
As for `CC(C)=CC1CC(=O)C1(C)Sc1ccccc1` (stereo not drawn), the GI50 in the assay with SK-MEL-5 was 33.3 µM (inactive); in the assay with SK-MEL-2, 35.2 µM (inactive); in the assay with SK-OV-3, > 100 µM (inactive); with OVCAR-5 it was > 100 µM (inactive); in the assay with SNB-19, 67.8 µM (inactive); in the assay with OVCAR-4 it was > 100 µM (inactive). For the same compound, the GI50 with OVCAR-8 is > 100 µM (inactive); in the assay on SF-295 it was > 100 µM (inactive); in the assay on HOP-92, 29.9 µM (inactive); in the assay on HT-29, 27.4 µM (inactive); in the assay on LOX IMVI, 17.3 µM (inactive); in the assay with OVCAR-3, 52.4 µM (inactive). Besides, the GI50 in the assay with U-251 is 67 µM (inactive); in the assay on RXF 393, 26.2 µM (inactive); in the assay on HL-60, 22.8 µM (inactive); with COLO 205, 23.1 µM (inactive); with SNB-75 it was 65.2 µM (inactive); in the assay on SK-MEL-28 it was > 100 µM (inactive). Besides, the GI50 in the assay on EKVX was 54.2 µM (inactive).
As for `CC(=O)OC[C@H]1[C@@H]2C(CC[C@]13CO3)OC(=O)CC(C)[C@]2(C)CCc1ccoc1` (stereo partly drawn), the GI50 with SK-MEL-5, with SK-OV-3, in the assay with OVCAR-5, in the assay with SNB-19, in the assay on SW-620 and in the assay with OVCAR-4 was > 100 µM (inactive) in each case. Moreover, the GI50 with OVCAR-8, with SF-295, in the assay with HOP-92, with HT-29, with LOX IMVI and in the assay with OVCAR-3 was > 100 µM (inactive) each time. The GI50 in the assay on U-251, in the assay on RXF 393, in the assay on HL-60, in the assay on COLO 205, with SK-MEL-28 and with EKVX was > 100 µM (inactive) throughout.
For `O=C(O)C1=C(CO)Oc2cc3c(cc2C1c1ccc2c(c1)OCO2)OCO3` (stereo not drawn), the GI50 with SK-MEL-5, with SK-MEL-2, with SK-OV-3, in the assay on SNB-19, with SW-620 and with OVCAR-4 was > 100 µM (inactive) in each case. Further, the GI50 in the assay on OVCAR-8, with SF-295, in the assay with HOP-92, in the assay on HT-29, with LOX IMVI and in the assay with OVCAR-3 was > 100 µM (inactive) in each case. Moreover, the GI50 with U-251, with RXF 393, with HL-60, with COLO 205, with SNB-75 and with SK-MEL-28 was > 100 µM (inactive) in each case. In addition, the GI50 with EKVX is > 100 µM (inactive).
For the compound `CCN1c2ccccc2NC(=S)c2c(-c3ccccc3)n[nH]c21`, the GI50 in the assay on SK-MEL-5 was 20.3 µM (inactive); in the assay on SK-MEL-2 it was 25.3 µM (inactive); with SK-OV-3, 34 µM (inactive); with OVCAR-5, 56.4 µM (inactive); in the assay on SW-620, 27 µM (inactive); in the assay with OVCAR-4 it was 36.6 µM (inactive). Besides, the GI50 in the assay with OVCAR-8 was 39.4 µM (inactive); in the assay with SF-295 it was 27.4 µM (inactive); in the assay with HOP-92, 43.8 µM (inactive); in the assay on HT-29, 42.7 µM (inactive); with LOX IMVI it was 30.5 µM (inactive); in the assay on OVCAR-3, 53.3 µM (inactive). Besides, the GI50 is 20.9 µM (inactive) with U-251; 27.7 µM (inactive) with RXF 393; 13.6 µM (inactive) in the assay on HL-60; 31.5 µM (inactive) in the assay with COLO 205; 55.7 µM (inactive) with SNB-75; 45.6 µM (inactive) in the assay on SK-MEL-28. The GI50 in the assay with EKVX is 21 µM (inactive).
With `O=C(Nc1ccc(Cl)cc1)C(=O)C(C(=O)c1ccccc1-c1ccccc1)C1OC(=O)c2ccccc21` (stereo not drawn), the GI50 with SK-MEL-5 was 14.5 µM (inactive); with SK-MEL-2 it was 20.8 µM (inactive); with SK-OV-3, 27.6 µM (inactive); in the assay with OVCAR-5 it was 28.3 µM (inactive); with SNB-19 it was 16.6 µM (inactive); in the assay with SW-620 it was 22.4 µM (inactive). Also, the GI50 in the assay on OVCAR-4 is 35.5 µM (inactive); in the assay with OVCAR-8 it was 15.5 µM (inactive); with SF-295, 26.9 µM (inactive); in the assay on HOP-92, 27 µM (inactive); with HT-29 it was 23.1 µM (inactive); with LOX IMVI, 14.6 µM (inactive). The GI50 in the assay with U-251 is 14 µM (inactive); in the assay with RXF 393, 11.6 µM (inactive); in the assay on HL-60, 18.5 µM (inactive); in the assay on COLO 205, 21.7 µM (inactive); in the assay on SNB-75, 31.4 µM (inactive); in the assay on SK-MEL-28 it was 18.4 µM (inactive). Besides, the GI50 in the assay with EKVX was 18.2 µM (inactive).
